Laboratory results: US20210340131A1, “PESTICIDALLY ACTIVE ISOXAZOLINE D[…] AMIDE GROUP AND AN AZETIDINE SULFONE GROUP” (SYNGENTA CROP PROTECTION AG, priority 2018, published 2021)

Key:
Assay type in all cases: in vivo
Spodoptera littoralis = Spodoptera littoralis (Egyptian cotton leaf worm), sprayed cotton leaf discs, L1 larvae; settings: foliar, 72 h, spray on cotton leaf discs, 3 days after infestation, read-out: control (mortality, anti-feeding effect or growth inhibition)
Procedure: Spodoptera littoralis (Egyptian Cotton Leaf Worm)
Cotton leaf discs were placed onto agar in 24-well microtiter plates and sprayed with aqueous test solutions prepared from 10′000 ppm DMSO stock solutions. After drying the leaf discs were infested with five L1 larvae. The samples were assessed for mortality, anti-feeding effect, and growth inhibition in comparison to untreated samples 3 days after infestation. Control of Spodoptera littoralis by a test sample is given when at least one of the categories mortality, anti-feedant effect, and growth inhibition is higher than the untreated sample.

Euschistus heros = Euschistus heros (neotropical brown stink bug), sprayed soybean leaves, N2 nymphs; settings: 120 h, spray on soybean leaves, 5 days after infestation, read-out: effect in at least one of the two categories (mortality or growth inhibition)
Procedure: Euschistus heros (Neotropical Brown Stink Bug)
Soybean leaves on agar in 24-well microtiter plates were sprayed with aqueous test solutions prepared from 10′000 ppm DMSO stock solutions. After drying the leaves were infested with N2 nymphs. The samples were assessed for mortality and growth inhibition in comparison to untreated samples 5 days after infestation.
The following compounds gave an effect of at least 80% in at least one of the two categories (mortality or growth inhibition) at an application rate of 200 ppm: A1, A2

Thrips tabaci = Thrips tabaci (onion thrips) feeding/contact activity; settings: foliar, 144 h, spray on sunflower leaf discs, mixed ages, 6 days after infestation
Procedure: Thrips tabaci (Onion Thrips) Feeding/Contact Activity
(§1) Sunflower leaf discs were placed on agar in 24-well microtiter plates and sprayed with aqueous test solutions prepared from 10′000 ppm DMSO stock solutions. After drying the leaf discs were infested with a thrips population of mixed ages. The samples were assessed for mortality 6 days after infestation.

Plutella xylostella [1] = assay: Plutella xylostella (diamond back moth), artificial diet, L2 larvae; settings: 120 h, 5 days after infestation, read-out: effect in at least one of the two categories (mortality or growth inhibition)
Procedure: (§2) Plutella xylostella (Diamond Back Moth)
(§3) 24-well microtiter plates with artificial diet were treated with aqueous test solutions prepared from 10′000 ppm DMSO stock solutions by pipetting. After drying, the plates were infested with L2 larvae (10 to 15 per well). The samples were assessed for mortality and growth inhibition in comparison to untreated samples 5 days after infestation.
The following compounds gave an effect of at least 80% in at least one of the two categories (mortality or growth inhibition) at an application rate of 200 ppm: A1

Tetranychus urticae = Tetranychus urticae (two-spotted spider mite) feeding/contact activity; settings: foliar, 192 h, spray on bean leaf discs, mixed population (mobile stages), 8 days after infestation
Procedure: Tetranychus urticae (Two-Spotted Spider Mite): Feeding/Contact Activity
as §1, with “Bean” for “Sunflower”, “discs” for “discs were placed”, “were” for “and”, “mite” for “thrips”, “on mixed population (mobile stages) 8” for “6”

Diabrotica balteata = Diabrotica balteata (corn root worm), sprayed maize sprouts, L2 larvae; settings: 96 h, spray on maize sprouts, 4 days after infestation, read-out: effect in at least one of the two categories (mortality or growth inhibition)
Procedure: Diabrotica balteata (Corn Root Worm)
Maize sprouts placed onto an agar layer in 24-well microtiter plates were treated with aqueous test solutions prepared from 10′000 ppm DMSO stock solutions by spraying. After drying, the plates were infested with L2 larvae (6 to 10 per well). The samples were assessed for mortality and growth inhibition in comparison to untreated samples 4 days after infestation. The following compounds gave an effect of at least 80% in at least one of the two categories (mortality or growth inhibition) at an application rate of 200 ppm: A1

Plutella xylostella [2] = assay: Plutella xylostella (diamond back moth), artificial diet, eggs; settings: 192 h, 8 days after infestation, read-out: effect in at least one of the two categories (mortality or growth inhibition)
Procedure: as §2
as §3, with “drying, Plutella eggs were pipetted through a plastic stencil onto a gel blotting paper and” for “drying,”, “plate was closed” for “plates were infested”, “it.” for “L2 larvae (10 to 15 per well).”, “8” for “5”
The following compounds gave an effect of at least 80% in at least one of the two categories (mortality or growth inhibition) at an application rate of 200 ppm: A2

COC(=O)N(C(=O)c1ccc(C2=NO[C@@](c3cc(Cl)c(F)c(Cl)c3)(C(F)(F)F)C2)cc1C)C1CN(S(=O)(=O)C(F)F)C1 [A1, methyl N-[4-[(5S)-5-(3,5-dichloro-4-fluoro-phenyl)-5-(trifluoromethyl)-4H-isoxazol-3-yl]-2-methyl-benzoyl]-N-[1-(difluoromethylsulfonyl)azetidin-3-yl]carbamate]
≥ 80%: percent control (mortality, anti-feedant effect or growth inhibition) at 200 ppm (Spodoptera littoralis) | percent effect (mortality or growth inhibition) at 200 ppm (Euschistus heros) | mortality at 200 ppm (Thrips tabaci) | percent effect (mortality or growth inhibition) at 200 ppm (Plutella xylostella [1]) | mortality at 200 ppm (Tetranychus urticae) | percent effect (mortality or growth inhibition) at 200 ppm (Diabrotica balteata)

CCOC(=O)N(C(=O)c1ccc(C2=NO[C@@](c3cc(Cl)c(F)c(Cl)c3)(C(F)(F)F)C2)cc1C)C1CN(S(=O)(=O)C(F)F)C1 [A2, ethyl N-[4-[(5S)-5-(3,5-dichloro-4-fluoro-phenyl)-5-(trifluoromethyl)-4H-isoxazol-3-yl]-2-methyl-benzoyl]-N-[1-(difluoromethylsulfonyl)azetidin-3-yl]carbamate]
≥ 80%: percent effect (mortality or growth inhibition) at 200 ppm (Plutella xylostella [2]) | percent control (mortality, anti-feedant effect or growth inhibition) at 200 ppm (Spodoptera littoralis) | percent effect (mortality or growth inhibition) at 200 ppm (Euschistus heros)
